{
  "source": "the supplement of paper PMC11208160",
  "data": [
    {"assay": "recombinant UMI read abundance after kanamycin selection (control-corrected) (log10(CPM+1)); higher = more efficient recombination; extreme values may be limits of the assay; sequences stand for … in AGTGCAGAGAAAATCGGCCAGTTTTCTCTGCCTGCAGTCCGCATGCCGTGGGACCCCTTGGGTTCTAACCTGTTGCCTAGATTTATGCAGCGGACTGCCTTTCTCCCAAAGTGATAAACCGG…AGGTTGGTTTCACT; site = the 11-nt donor", "method_in_brief": "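For the IS621 bridge recombinase, a pooled Escherichia coli screen tested donor and donor-binding-loop pairs. Cells received the pair library together with a target plasmid encoding a fixed target and T7-inducible recombinase, then went onto IPTG (0.07 mM) plus kanamycin or unselected plates in duplicate. After PCR across the donor–target junction and sequencing, recombinant UMI counts were normalized to CPM, averaged, and scaled by control-derived factors. Each value is given as log10(CPM+1).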", "values": [
      {"sequence": "GACACGCCATGGACCGGTTTTCCCGGTAATCCGTATTTGTA (site GCCACGCCTTA)", "recombinant UMI read abundance (log10)": 0.176},
      {"sequence": "GACACGCCATGGACCGGTTTTCCCGGTAATCCGTATTTGTA (site GGCACGCCTTA)", "recombinant UMI read abundance (log10)": 0.00761},
      {"sequence": "GACACGCCATGGACCGGTTTTCCCGGTAATCCGTATTTGTA (site GTCACGCCTTA)", "recombinant UMI read abundance (log10)": 0.0098},
      {"sequence": "GACACGCCATGGACCGGTTTTCCCGGTAATCCGTATTTGTG (site GACACGCCTCA)", "recombinant UMI read abundance (log10)": 0.149},
      {"sequence": "GACAGACCATGGACCGGTTTTCCCGGTAATCCGTATTTGGT (site GACAAACCTAC)", "recombinant UMI read abundance (log10)": 0},
      {"sequence": "GACAGACCATGGACCGGTTTTCCCGGTAATCCGTATTTGGT (site GACACACCTAC)", "recombinant UMI read abundance (log10)": 0.00419},
      {"sequence": "GACAGACCATGGACCGGTTTTCCCGGTAATCCGTATTTGGT (site GACAGACCTAC)", "recombinant UMI read abundance (log10)": 0.0145},
      {"sequence": "GACAGACCATGGACCGGTTTTCCCGGTAATCCGTATTTGGT (site GACATACCTAC)", "recombinant UMI read abundance (log10)": 0},
      {"sequence": "GACATACCATGGACCGGTTTTCCCGGTAATCCGTATTTGGC (site GACATACCTGC)", "recombinant UMI read abundance (log10)": 0},
      {"sequence": "GACCCATCATGGACCGGTTTTCCCGGTAATCCGTATTTGGA (site GACCCATCTTC)", "recombinant UMI read abundance (log10)": 1.26},
      {"sequence": "GACCGGGCATGGACCGGTTTTCCCGGTAATCCGTATTTGAT (site GACCGGGCTAT)", "recombinant UMI read abundance (log10)": 0.662},
      {"sequence": "GACCGTCCATGGACCGGTTTTCCCGGTAATCCGTATTTGAT (site AACCGTCCTAT)", "recombinant UMI read abundance (log10)": 0},
      {"sequence": "GACCGTCCATGGACCGGTTTTCCCGGTAATCCGTATTTGAT (site CACCGTCCTAT)", "recombinant UMI read abundance (log10)": 0.00334},
      {"sequence": "GACCGTCCATGGACCGGTTTTCCCGGTAATCCGTATTTGAT (site GACCGTCCTAT)", "recombinant UMI read abundance (log10)": 0.0192},
      {"sequence": "GACCGTCCATGGACCGGTTTTCCCGGTAATCCGTATTTGAT (site TACCGTCCTAT)", "recombinant UMI read abundance (log10)": 0.0517},
      {"sequence": "GACCTCACATGGACCGGTTTTCCCGGTAATCCGTATTTGTA (site GACCTCACTTA)", "recombinant UMI read abundance (log10)": 0.0239},
      {"sequence": "GACGAAACATGGACCGGTTTTCCCGGTAATCCGTATTTGTA (site GACGAAACTTA)", "recombinant UMI read abundance (log10)": 2.54},
      {"sequence": "GACGAAGCATGGACCGGTTTTCCCGGTAATCCGTATTTGCT (site GACGAAGCTAG)", "recombinant UMI read abundance (log10)": 2.11},
      {"sequence": "GACGCCACATGGACCGGTTTTCCCGGTAATCCGTATTTGAA (site GACGCCACTTT)", "recombinant UMI read abundance (log10)": 0.827},
      {"sequence": "GACGCCGCATGGACCGGTTTTCCCGGTAATCCGTATTTGAG (site GACGCCGCTCT)", "recombinant UMI read abundance (log10)": 0.349},
      {"sequence": "GACGCTACATGGACCGGTTTTCCCGGTAATCCGTATTTGCA (site GACGCTACTTG)", "recombinant UMI read abundance (log10)": 1.36},
      {"sequence": "GACTATCCATGGACCGGTTTTCCCGGTAATCCGTATTTGCT (site GAATATCCTAG)", "recombinant UMI read abundance (log10)": 0.00525},
      {"sequence": "GACTATCCATGGACCGGTTTTCCCGGTAATCCGTATTTGCT (site GACTATCCTAG)", "recombinant UMI read abundance (log10)": 1.29},
      {"sequence": "GACTATCCATGGACCGGTTTTCCCGGTAATCCGTATTTGCT (site GAGTATCCTAG)", "recombinant UMI read abundance (log10)": 0},
      {"sequence": "GACTATCCATGGACCGGTTTTCCCGGTAATCCGTATTTGCT (site GATTATCCTAG)", "recombinant UMI read abundance (log10)": 0},
      {"sequence": "GACTCACCATGGACCGGTTTTCCCGGTAATCCGTATTTGAC (site GACTCACCTGT)", "recombinant UMI read abundance (log10)": 0},
      {"sequence": "GACTCCCCATGGACCGGTTTTCCCGGTAATCCGTATTTGCA (site GACTCCCCTTG)", "recombinant UMI read abundance (log10)": 1.3},
      {"sequence": "GACTCCTCATGGACCGGTTTTCCCGGTAATCCGTATTTGCC (site AACTCCTCTGG)", "recombinant UMI read abundance (log10)": 1.71},
      {"sequence": "GACTCCTCATGGACCGGTTTTCCCGGTAATCCGTATTTGCC (site CACTCCTCTGG)", "recombinant UMI read abundance (log10)": 1.86},
      {"sequence": "GACTCCTCATGGACCGGTTTTCCCGGTAATCCGTATTTGCC (site GACTCCTCTGG)", "recombinant UMI read abundance (log10)": 2.02},
      {"sequence": "GACTCCTCATGGACCGGTTTTCCCGGTAATCCGTATTTGCC (site TACTCCTCTGG)", "recombinant UMI read abundance (log10)": 2.07},
      {"sequence": "GACTTAGCATGGACCGGTTTTCCCGGTAATCCGTATTTGTG (site GACTTAGCTCA)", "recombinant UMI read abundance (log10)": 0.251},
      {"sequence": "GACTTGACATGGACCGGTTTTCCCGGTAATCCGTATTTGCT (site AACTTGACTAG)", "recombinant UMI read abundance (log10)": 1.3},
      {"sequence": "GACTTGACATGGACCGGTTTTCCCGGTAATCCGTATTTGCT (site CACTTGACTAG)", "recombinant UMI read abundance (log10)": 0.596},
      {"sequence": "GACTTGACATGGACCGGTTTTCCCGGTAATCCGTATTTGCT (site GACTTGACTAG)", "recombinant UMI read abundance (log10)": 0.984},
      {"sequence": "GACTTGACATGGACCGGTTTTCCCGGTAATCCGTATTTGCT (site TACTTGACTAG)", "recombinant UMI read abundance (log10)": 0.923},
      {"sequence": "GACTTGGCATGGACCGGTTTTCCCGGTAATCCGTATTTGGA (site AACTTGGCTTC)", "recombinant UMI read abundance (log10)": 0.227},
      {"sequence": "GACTTGGCATGGACCGGTTTTCCCGGTAATCCGTATTTGGA (site CACTTGGCTTC)", "recombinant UMI read abundance (log10)": 0.579},
      {"sequence": "GACTTGGCATGGACCGGTTTTCCCGGTAATCCGTATTTGGA (site GACTTGGCTTC)", "recombinant UMI read abundance (log10)": 0.654},
      {"sequence": "GACTTGGCATGGACCGGTTTTCCCGGTAATCCGTATTTGGA (site TACTTGGCTTC)", "recombinant UMI read abundance (log10)": 0.28},
      {"sequence": "GACTTTCCATGGACCGGTTTTCCCGGTAATCCGTATTTGAC (site GACTTTCCTGT)", "recombinant UMI read abundance (log10)": 0.0655},
      {"sequence": "GAGAATGCATGGACCGGTTTTCCCGGTAATCCGTATTTGCT (site GAGAATGCTAG)", "recombinant UMI read abundance (log10)": 2.16},
      {"sequence": "GAGACGCCATGGACCGGTTTTCCCGGTAATCCGTATTTGAT (site GAGACGCCTAT)", "recombinant UMI read abundance (log10)": 0.566},
      {"sequence": "GAGATTCCATGGACCGGTTTTCCCGGTAATCCGTATTTGGG (site GAGATTCCTCC)", "recombinant UMI read abundance (log10)": 0.0141},
      {"sequence": "GAGCACACATGGACCGGTTTTCCCGGTAATCCGTATTTGAT (site GAGCACACTAT)", "recombinant UMI read abundance (log10)": 1.9},
      {"sequence": "GAGCACACATGGACCGGTTTTCCCGGTAATCCGTATTTGAT (site GAGCCCACTAT)", "recombinant UMI read abundance (log10)": 0.0144},
      {"sequence": "GAGCACACATGGACCGGTTTTCCCGGTAATCCGTATTTGAT (site GAGCGCACTAT)", "recombinant UMI read abundance (log10)": 0.00425},
      {"sequence": "GAGCACACATGGACCGGTTTTCCCGGTAATCCGTATTTGAT (site GAGCTCACTAT)", "recombinant UMI read abundance (log10)": 0},
      {"sequence": "GAGCCGGCATGGACCGGTTTTCCCGGTAATCCGTATTTGAA (site GAGCCGGCTTT)", "recombinant UMI read abundance (log10)": 0.241},
      {"sequence": "GAGCCGTCATGGACCGGTTTTCCCGGTAATCCGTATTTGAT (site GAGCCGTCTAT)", "recombinant UMI read abundance (log10)": 1.32},
      {"sequence": "GAGCCTCCATGGACCGGTTTTCCCGGTAATCCGTATTTGAG (site GAGCCTCCTCT)", "recombinant UMI read abundance (log10)": 0.0215},
      {"sequence": "GAGCGCTCATGGACCGGTTTTCCCGGTAATCCGTATTTGCG (site GAGCGCTCTCG)", "recombinant UMI read abundance (log10)": 2.26},
      {"sequence": "GAGCGGACATGGACCGGTTTTCCCGGTAATCCGTATTTGGC (site GAGCGGACTGC)", "recombinant UMI read abundance (log10)": 2.85},
      {"sequence": "GAGCTACCATGGACCGGTTTTCCCGGTAATCCGTATTTGGC (site GAGCTACCTGC)", "recombinant UMI read abundance (log10)": 0},
      {"sequence": "GAGCTAGCATGGACCGGTTTTCCCGGTAATCCGTATTTGAA (site AAGCTAGCTTT)", "recombinant UMI read abundance (log10)": 1.5},
      {"sequence": "GAGCTAGCATGGACCGGTTTTCCCGGTAATCCGTATTTGAA (site CAGCTAGCTTT)", "recombinant UMI read abundance (log10)": 0.896},
      {"sequence": "GAGCTAGCATGGACCGGTTTTCCCGGTAATCCGTATTTGAA (site GAGCTAGCTTT)", "recombinant UMI read abundance (log10)": 2.14},
      {"sequence": "GAGCTAGCATGGACCGGTTTTCCCGGTAATCCGTATTTGAA (site TAGCTAGCTTT)", "recombinant UMI read abundance (log10)": 1.63},
      {"sequence": "GAGCTCACATGGACCGGTTTTCCCGGTAATCCGTATTTGAA (site GAGCTCACTAT)", "recombinant UMI read abundance (log10)": 0.839},
      {"sequence": "GAGCTCACATGGACCGGTTTTCCCGGTAATCCGTATTTGAA (site GAGCTCACTCT)", "recombinant UMI read abundance (log10)": 0.0248},
      {"sequence": "GAGCTCACATGGACCGGTTTTCCCGGTAATCCGTATTTGAA (site GAGCTCACTGT)", "recombinant UMI read abundance (log10)": 0.716},
      {"sequence": "GAGCTCACATGGACCGGTTTTCCCGGTAATCCGTATTTGAA (site GAGCTCACTTT)", "recombinant UMI read abundance (log10)": 1.43},
      {"sequence": "GAGCTCACATGGACCGGTTTTCCCGGTAATCCGTATTTGAG (site GAGCTCACTAT)", "recombinant UMI read abundance (log10)": 0.277},
      {"sequence": "GAGCTCACATGGACCGGTTTTCCCGGTAATCCGTATTTGAG (site GAGCTCACTCT)", "recombinant UMI read abundance (log10)": 0.665},
      {"sequence": "GAGCTCACATGGACCGGTTTTCCCGGTAATCCGTATTTGAG (site GAGCTCACTGT)", "recombinant UMI read abundance (log10)": 0},
      {"sequence": "GAGCTCACATGGACCGGTTTTCCCGGTAATCCGTATTTGAG (site GAGCTCACTTT)", "recombinant UMI read abundance (log10)": 0.00749},
      {"sequence": "GAGCTCCCATGGACCGGTTTTCCCGGTAATCCGTATTTGAT (site GAGCTCACTAT)", "recombinant UMI read abundance (log10)": 0.00938},
      {"sequence": "GAGCTCCCATGGACCGGTTTTCCCGGTAATCCGTATTTGAT (site GAGCTCCCTAT)", "recombinant UMI read abundance (log10)": 1.07}
    ]}
  ]
}
